Values of other authors in patent publication EP4759311A1, “TRPM8 INHIBITORS FOR USE IN THE PREVENTION OR TREATMENT OF JOINT DAMAGE, JOINT DEGENERATION AND/OR JOINT INFLAMMATION CAUSED BY OSTEOARTHRITIS” (Dompé farmaceutici SpA, priority 2024, dated 2026).

Biological target: TRPM8 (Homo sapiens, UniProt Q7Z2W7)
Details: TRPM8 inhibitor; no method given

Sequence of TRPM8 (Q7Z2W7 whole entry, species assumed): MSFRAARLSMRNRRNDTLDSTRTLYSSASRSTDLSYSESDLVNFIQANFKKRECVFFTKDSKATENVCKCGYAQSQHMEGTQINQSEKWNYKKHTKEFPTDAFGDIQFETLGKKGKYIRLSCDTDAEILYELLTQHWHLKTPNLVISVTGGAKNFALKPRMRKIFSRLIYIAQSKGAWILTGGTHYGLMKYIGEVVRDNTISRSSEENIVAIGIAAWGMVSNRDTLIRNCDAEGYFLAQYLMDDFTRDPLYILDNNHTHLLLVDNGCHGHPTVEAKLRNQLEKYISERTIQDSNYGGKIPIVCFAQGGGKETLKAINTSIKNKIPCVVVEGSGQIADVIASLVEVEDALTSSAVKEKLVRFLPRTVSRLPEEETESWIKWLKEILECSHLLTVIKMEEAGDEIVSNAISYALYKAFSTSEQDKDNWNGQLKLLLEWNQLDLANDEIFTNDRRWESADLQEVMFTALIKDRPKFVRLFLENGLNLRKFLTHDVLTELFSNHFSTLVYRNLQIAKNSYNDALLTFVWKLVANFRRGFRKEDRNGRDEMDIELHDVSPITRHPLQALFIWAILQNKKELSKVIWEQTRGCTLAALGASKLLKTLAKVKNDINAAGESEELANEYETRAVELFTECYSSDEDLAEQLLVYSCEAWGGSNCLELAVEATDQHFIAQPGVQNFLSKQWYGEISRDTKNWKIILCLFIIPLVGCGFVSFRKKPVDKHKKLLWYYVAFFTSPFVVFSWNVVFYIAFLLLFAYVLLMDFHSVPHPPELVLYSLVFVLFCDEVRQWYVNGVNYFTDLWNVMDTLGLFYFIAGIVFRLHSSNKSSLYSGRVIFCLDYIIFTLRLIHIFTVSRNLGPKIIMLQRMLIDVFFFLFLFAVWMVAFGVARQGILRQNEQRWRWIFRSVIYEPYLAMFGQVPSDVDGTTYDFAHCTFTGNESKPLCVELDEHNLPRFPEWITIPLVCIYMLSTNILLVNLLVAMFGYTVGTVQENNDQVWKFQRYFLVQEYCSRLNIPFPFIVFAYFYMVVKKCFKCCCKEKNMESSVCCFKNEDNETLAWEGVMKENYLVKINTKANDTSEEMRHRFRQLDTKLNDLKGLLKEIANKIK

SMILES: COC(=O)[C@H](Cc1c[nH]c2ccccc12)N(Cc1ccccc1)Cc1ccccc1 [TRPM8 antagonist 2, N,N-Bis(phenylmethyl)-L-tryptophan methyl ester]
- IC50: 0.2 nM

SMILES: O=C(O)c1ccc(S(=O)(=O)N(Cc2ccc(OC(F)(F)F)cc2)c2ncc(C(F)(F)F)cc2Cl)cc1 [RQ-00203078, 4-[[[3-Chloro-5-(trifluoromethyl)-2-pyridinyl][[4-(trifluoromethoxy)phenyl]methyl]amino]sulfonyl]benzoic acid]
- IC50: 5.3 nM
